Results published in patent publication US11696921B2, “Synthetic composition for microbiota modulation” (GLYCOM A/S, priority 2015, dated 2023).

Columns and labels:
[1] = tested on: totality of B. longum + B. bifidum + B. animalis lactis + B. angulatum; assay: Faecal microbiota / Bifidobacterium profiling after 2 weeks' daily HMO consumption by healthy adults; format: in vivo, human; conditions: oral
Experimental: (§1) A total of 100 male and female healthy adults are recruited to participate in the study. After a screening visit and run-in period of 1-2 weeks, the participants are selected and randomized into ten groups, each of 10 subjects. One group is administered a placebo product containing 2 grams of glucose. The remaining 9 groups are administered treatment product containing a) 20 g of 2′-FL, b) 10 g of 2′-FL, c) 5 g of 2′-FL, d) 20 g of LNnT, e) 10 g of LNnT, f) 5 g of LNnT, g) 20 g of a 2:1 mixture of 2′-FL and LNnT, h) 10 g of a 2:1 mixture of 2′-FL and LNnT, and i) 5 g of a 2:1 mixture of 2′-FL and LNnT for 2 weeks (the amounts correspond to a daily dose). The placebo and treatment products are in powder form in a unit dosage container.
(§2) At the second visit, eligibility criteria are checked and eligible subjects are randomised to the ten arms in the trial (treatment groups and placebo group). The faecal samples are collected and equipment for new samples are distributed. Participants are familiarised with an interactive internet enabled system which recorded data daily and are provided with either treatment or control products. Subjects are reminded not to change their usual diet during the study. Blood samples are collected for biomarker studies. The faecal samples are stored at −80° C. until analysis.
(§3) The study runs for 2 weeks with the participants consuming either a placebo or a treatment product daily. Participants are instructed to consume the products in the morning with breakfast. Compliance is monitored through the interactive internet enabled system.
(§4) At the end of the study, each participant has an exit visit with the medical team. Faecal samples and blood samples are collected.
(§5) To assess the microbiota profile, DNA is extracted from the faecal samples using a 96-well PowerSoil DNA Isolation Kit (MO-BIO). A minimum of one sample-well per plate is kept empty to serve as a negative control during PCR. PCR is done with the forward primer S-D-Bact-0341-b-S-17 and reverse primer S-D-Bact-0785-a-A-21 (Klindworth et al. Nucleic Acids Res. 41, e1 (2013)) with Illumina adapters attached. These are universal bacterial 16S rDNA primers, which targeted the V3-V4 region. The following PCR program is used: 98° C. for 30 sec, 25× (98° C. for 10 s, 55° C. for 20 s, 72° C. for 20 s), 72° C. for 5 min. Amplification is verified by running the products on a 1% agarose gel. Barcodes are added in a nested PCR using the Nextera Index Kit V2 (Illumina) with the following PCR program: 98° C. for 30 sec, 8× (98° C. for 10 s, 55° C. for 20 s, 72° C. for 20 s), 72° C. for 5 min. Attachment of primers is verified by running the products on a 1% agarose gel. Products from the nested PCR are normalized using the SequalPrep Normalization Plate Kit and pooled. Pooled libraries are concentrated by evaporation and the DNA concentration of pooled libraries is measured on a Qubit fluorometer using the Qubit High Sensitivity Assay Kit (Thermo Fisher Scientific). Sequencing is done on a MiSeq desktop sequencer using the MiSeq Reagent Kit V3 (Illumina) for 2×300 bp paired-end sequencing. The 64-bit version of USEARCH is used for bioinformatical analysis of the sequence data.
(§6) To assess the Bifidobacterium community, ITS profiling of DNA samples is performed according to Milani et al. FEMS Microbiol. Ecol. 90, 493 (2014). […] Both B. adolescentis and B. pseudocatenulatum are members of the B. adolescentis phylogenetic group. It can be seen that oral ingestion of the HMOs clearly increases the abundance of B. adolescentis and/or B. pseudocatenulatum in the microbiota of healthy adults, as well as their relative abundance compared to the totality of other Bifidobacterium species.

[2] = tested on: B. adolescentis phylogenetic group; assay: as above; format: in vivo, human; conditions: oral
Experimental: as §1, §2, §3, §4, §5, §6

Compound | percentage increase of totality of B. longum + B. bifidum + B. animalis lactis + B. angulatum in human faeces ([1]; 5 g daily dose) | percentage increase of totality of B. longum + B. bifidum + B. animalis lactis + B. angulatum in human faeces ([1]; 10 g daily dose) | percentage increase of totality of B. longum + B. bifidum + B. animalis lactis + B. angulatum in human faeces ([1]; 20 g daily dose) | percentage increase of B. adolescentis phylogenetic group in human faeces ([2]; 5 g daily dose) | percentage increase of B. adolescentis phylogenetic group in human faeces ([2]; 10 g daily dose) | percentage increase of B. adolescentis phylogenetic group in human faeces ([2]; 20 g daily dose)
CC(=O)N[C@H]1[C@H](O[C@H]2[C@@H](O)[C@@H](CO)O[C@@H](O[C@H]3[C@H](O)[C@@H](O)C(O)O[C@@H]3CO)[C@@H]2O)O[C@H](CO)[C@@H](O[C@@H]2O[C@H](CO)[C@H](O)[C@H](O)[C@H]2O)[C@@H]1O (mixture of isomers) [LNnT, lacto-N-neotetraose] | 50% | 130% | 105% | 90% | 195% | 185%
2′-fucosyllactose [2′-FL] | 0% | 20% | 15% | 50% | 325% | 120%
